Measured values reported in patent publication US20220218679A1, “NOVEL COMPOUNDS AND PHARMACEUTICAL COMPOSITIONS THEREOF FOR THE TREATMENT OF INFLAMMATORY DISORDERS” (Galapagos NV, priority 2019, published 2022).

Experiments:
human IRAK-4 = biological target: T1, human IRAK-4 (Homo sapiens, UniProt Q9NWZ3); assay: Phosphorylation IC50 determination for human IRAK-4 (ADP-Glo kinase assay); assay type: biochemical; details: RIP140 substrate, Km ATP, read-out: IRAK4 IC50
T1 construct: purchased Carna Biosciences 09 145
T1 sequence (Q9NWZ3 1-460): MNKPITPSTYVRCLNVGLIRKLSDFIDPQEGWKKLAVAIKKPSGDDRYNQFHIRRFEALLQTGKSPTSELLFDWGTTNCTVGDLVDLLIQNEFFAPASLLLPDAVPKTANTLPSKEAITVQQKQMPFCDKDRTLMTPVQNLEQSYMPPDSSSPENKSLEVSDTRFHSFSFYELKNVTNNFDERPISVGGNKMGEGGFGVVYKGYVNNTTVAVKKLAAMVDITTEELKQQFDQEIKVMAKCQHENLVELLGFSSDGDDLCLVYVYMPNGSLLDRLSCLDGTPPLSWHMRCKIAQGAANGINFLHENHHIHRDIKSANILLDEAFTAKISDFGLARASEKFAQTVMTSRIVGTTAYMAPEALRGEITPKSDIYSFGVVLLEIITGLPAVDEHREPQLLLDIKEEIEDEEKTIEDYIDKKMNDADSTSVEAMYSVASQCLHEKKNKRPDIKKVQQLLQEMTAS
Method: 3.1. Phosphorylation IC50 Determination for Human IRAK-4
The phosphorylation of the substrate RIP140 (SEQ IDi1) by IRAK4 at Km ATP was detected with the ADP-Glo Kinase Assay (Promega, Cat #V9103), a luminescent kinase assay which measures the ADP formed from a kinase reaction. (Zegzouti et al., 2009) In a second step the kinase reaction is terminated and all the remaining ATP was depleted. In a final step the ADP was converted into ATP and this newly synthesized ATP was measured by using a luciferase/luciferin reaction with a luminescent reader. The luminescent signal positively correlated with kinase activity, in particular kinase inhibition giving a decrease of the luminescent signal.
For the semi-automated assay, the positive control (100% inhibition) was prepared by diluting 10 mM staurosporine stock mixture (20 μL) in water (3.8 mL) and DMSO (180 μL), thus resulting in a […] staurosporine solution at 1% DMSO (final concentration after further dilution in the kinase reaction).
For the automated assay, no pre-dilution of the 10 mM staurosporine stock was made. 10 mM staurosporine was spotted directly in the assay plate using acoustic dispensing and complemented with DMSO to result in a similar final concentration as mentioned above.
For the semi-automated assay, the negative control (0% inhibition) was prepared by mixing water (3.8 mL) and DMSO (200 μL) resulting in a final concentration of 1% DMSO after further dilution in the kinase reaction. For the automated assay no pre-dilution of DMSO was done. 100% DMSO was spotted directly on the assay plate.
The assay buffer solution was prepared at a concentration corresponding to 5 fold the final (most diluted) assay concentration by mixing a solution of 125 mM TRIS pH 7.5+0.05% Triton X-100+2.5 mM EGTA (5.27 mL) with 1M MgCl2 (72 μL), 1M DTT (57.6 μL), and 200 mM MnCl2 (360 μL).
For example, for the semi-automated method, the enzyme-substrate mixture was prepared by mixing water (3999 μL), assay buffer solution (1380 μL), 1 mM RIP140 (138 μL—SEQ ID1), and 200 ng/mL IRAK 4 (3.45 μL Carna Biosciences, 09 145).
For semi-automated method, the ATP mixture was prepared at a concentration corresponding to 2.5 fold the final (most diluted) assay concentration of the semi-automated method and 1.5 fold the final (most diluted) assay concentration of the automated method. For example, for the semi-automated method, the ATP mixture was prepared by mixing water (4126 μL), assay buffer solution (1380 μL), and 10 mM ATP (13.80 μL).
The assay was performed either in a semi-automated or fully automated manner. The assay volume and the incubation time of the ADP detection were different accordingly the method used.
3.1.3.1. Semi-Automated Assay
The compounds were prepared as a serial dilution of 10 point dose responses with 1/5 dilution steps in 100% DMSO starting from 2 mM highest concentration, diluted 1/20 in water. 1 μL was transferred dry to the assay plates.
On each assay plate 32 wells of each control (positive & negative) were added, followed by 2 μL enzyme-substrate mixture.
The reaction was started by adding 2 μL diluted ATP (final concentration Km ATP) on the assay plates. Plates were centrifuged for a few seconds at 1000 rpm followed by an incubation at r.t. for 120 min.
The reactions were stopped and the unconsumed ATP was depleted by adding 5 μL ADP-glo Reagent (Promega, Cat #V9103) to the reaction. The plates were quickly centrifuged at 1000 rpm and incubated at r.t. for 40 min corresponding to full ATP depletion.
The ADP was converted back to ATP and luciferase and luciferin were introduced to detect ATP by adding 10 μL kinase detection reagent (Promega, Cat #V9103) to the reaction. The plates were centrifuged for a few seconds at 1000 rpm and incubated at r.t. for a further 30 min.
Luminescent read out was performed on an Envision luminescent reader (Perkin Elmer). […]

Human Hepatocyte = assay: Metabolic stability in hepatocytes (human); assay type: in vitro ADME; details: 1 μM test compound, cryopreserved human hepatocytes
Method: 4.6. Metabolic Stability in Hepatocytes
The aim of this assay is to determine the metabolic stability of the compound in hepatocytes (cryopreserved) of different species. Low hepatocyte stability may result in the formation of unwanted metabolites, high clearance, and therefore is not desirable.
The decrease in parent was assessed by measuring the percentage remaining by LC-MS/MS analysis.
A 10 mM stock solution of test compound in DMSO was first diluted in DMSO to 3 mM, and then in modified Krebs-Henseleit buffer (Sigma, K3753) to 5 μM. This compound dilution was added to a suspension of pooled cryopreserved hepatocytes (BioreclamationIVT) at 37° C. under gentle shaking.
Final reaction conditions were: 1 μM of test compound, 0.03% DMSO, 0.5 million viable hepatocytes/mL, and 75 μL incubation volume.
Testosterone (1 μM) and 7-hydroxycoumarin (1 μM) were used, respectively as phase I and phase II metabolic reaction controls.
After 0, 10, 20, 45, 90, 120 and 180 min of incubation, the reaction was terminated with 225 μL of MeCN:MeOH (2:1) containing 100 ng/mL of diclofenac as analytical internal standard. Samples were mixed, centrifuged and the supernatant analyzed by LC-MS/MS.
The instrument responses (ratios of test compound and internal standard peak areas) were referenced to the zero time point samples (considered as 100%) in order to determine the percentage of compound remaining.
Plots of percentage compound remaining were used to determine the intrinsic clearance in the hepatocyte incubations using the following equations:
Scaled Clint [L/h/kg]=Clint[μL/min/10^6 cells]*#(10^6) cells/g liver*60*( 1/10^6) Scaled Clint unbound [L/h/kg]=Clint [L/h/kg]/Fu,inc where: fu,inc equals hepatocyte binding, derived from microsomal binding (fu,mic) by following equation: […]

Row | Compound | IC50 (human IRAK-4) | Human Hepatocyte stability (Perc. remaining at 90 min) (Human Hepatocyte)
1 | COc1cn2nc(CCC(C)(C)O)cc2cc1NC(=O)c1cccn(C2CC2)c1=O [Compound 1, 1-cyclopropyl-N-[2-(3-hydroxy-3-methylbutyl)-6-methoxypyrazolo[1,5-a]pyridin-5-yl]-2-oxopyridine-3-carboxamide] | 0.1 to 5 nM | 96.6 Perc.
2 | COc1cn2nc(CCC(C)(C)O)cc2cc1NC(=O)c1cccn(C)c1=O [Compound 2, N-[2-(3-hydroxy-3-methylbutyl)-6-methoxypyrazolo[1,5-a]pyridin-5-yl]-1-methyl-2-oxopyridine-3-carboxamide] | 0.1 to 5 nM | 100.45 Perc.
3 | COc1cn2nc(CCC(C)(C)O)cc2cc1NC(=O)c1cccc(C(F)(F)F)n1 [Compound 3, N-[2-(3-hydroxy-3-methylbutyl)-6-methoxypyrazolo[1,5-a]pyridin-5-yl]-6-(trifluoromethyl)pyridine-2-carboxamide] | 0.1 to 5 nM | 22.8 Perc.
4 | CC(C)(O)CCc1cc2cc(NC(=O)c3cccc(C(F)(F)F)n3)c(C(N)=O)cn2n1 [Compound 4, 2-(3-hydroxy-3-methylbutyl)-5-[[6-(trifluoromethyl)pyridine-2-carbonyl]amino]pyrazolo[1,5-a]pyridine-6-carboxamide] | 0.1 to 5 nM | –
5 | CNC(=O)c1cn2nc(CCC(C)(C)O)cc2cc1NC(=O)c1cccc(C(F)(F)F)n1 [Compound 5, 2-(3-hydroxy-3-methylbutyl)-N-methyl-5-[[6-(trifluoromethyl)pyridine-2-carbonyl]amino]pyrazolo[1,5-a]pyridine-6-carboxamide] | 0.1 to 5 nM | 94.5 Perc.
6 | COc1cn2nc(CCC(C)(C)O)cc2cc1NC(=O)c1cccn(C(F)F)c1=O [Compound 7, 1-(difluoromethyl)-N-[2-(3-hydroxy-3-methyl-butyl)-6-methoxy-pyrazolo[1,5-a]pyridin-5-yl]-2-oxo-pyridine-3-carboxamide] | 5 to 10 nM | –
7 | CNC(=O)c1cn2nc(C3CCCS(=O)(=O)C3)cc2cc1NC(=O)c1cccc(C(F)(F)F)n1 (stereo not drawn) [Compound 8, 2-(1,1-dioxothian-3-yl)-N-methyl-5-[[6-(trifluoromethyl)pyridine-2-carbonyl]amino]pyrazolo[1,5-a]pyridine-6-carboxamide] | 0.1 to 5 nM | 107 Perc.

Further lines, results first:

Row | IC50 (human IRAK-4) | Human Hepatocyte stability (Perc. remaining at 90 min) (Human Hepatocyte) | Compound
8 | 0.1 to 5 nM | 97.2 Perc. | COc1cn2nc(CC(F)C(C)(C)O)cc2cc1NC(=O)c1cccn(C2CC2)c1=O (single isomer, unassigned; enantiomer a) [Compound 25, 1-cyclopropyl-N-[2-(2-fluoro-3-hydroxy-3-methyl-butyl)-6-methoxy-pyrazolo[1,5-a]pyridin-5-yl]-2-oxo-pyridine-3-carboxamide Enantiomer A]
9 | 10 to 50 nM | 97.8 Perc. | COc1cn2nc(CC(F)C(C)(C)O)cc2cc1NC(=O)c1cccn(C2CC2)c1=O (single isomer, unassigned; enantiomer b) [Compound 26, 1-cyclopropyl-N-[2-(2-fluoro-3-hydroxy-3-methyl-butyl)-6-methoxy-pyrazolo[1,5-a]pyridin-5-yl]-2-oxo-pyridine-3-carboxamide Enantiomer B]
10 | 5 to 10 nM | 85.6 Perc. | CCOc1cn2nc(CCC(C)(C)O)cc2cc1NC(=O)c1cccn(C(F)F)c1=O [Compound 9, 1-(difluoromethyl)-N-[6-ethoxy-2-(3-hydroxy-3-methyl-butyl)pyrazolo[1,5-a]pyridin-5-yl]-2-oxo-pyridine-3-carboxamide]
11 | 0.1 to 5 nM | – | CNC(=O)c1cn2nc(C3CCN(C)CC3)cc2cc1NC(=O)c1cccc(C(F)(F)F)n1 [Compound 12, N-methyl-2-(1-methyl-4-piperidyl)-5-[[6-(trifluoromethyl)pyridine-2-carbonyl]amino]pyrazolo[1,5-a]pyridine-6-carboxamide]
12 | 10 to 50 nM | 98.45 Perc. | COc1c(NC(=O)c2cccn(C3CC3)c2=O)cc2cc(CCC(C)(C)O)nn2c1C [Compound 13, 1-cyclopropyl-N-[2-(3-hydroxy-3-methyl-butyl)-6-methoxy-7-methyl-pyrazolo[1,5-a]pyridin-5-yl]-2-oxo-pyridine-3-carboxamide]
13 | 0.1 to 5 nM | – | CNC(=O)c1cn2nc(C3CCOCC3)cc2cc1NC(=O)c1cccc(C(F)F)n1 [Compound 15, 5-[[6-(difluoromethyl)pyridine-2-carbonyl]amino]-N-methyl-2-tetrahydropyran-4-yl-pyrazolo[1,5-a]pyridine-6-carboxamide]
14 | 0.1 to 5 nM | 75.95 Perc. | NC(=O)c1cn2nc(C3CCOCC3)cc2cc1NC(=O)c1cccc(C(F)F)n1 [Compound 16, 5-[[6-(difluoromethyl)pyridine-2-carbonyl]amino]-2-tetrahydropyran-4-yl-pyrazolo[1,5-a]pyridine-6-carboxamide]
15 | 0.1 to 5 nM | 87.25 Perc. | CCOc1cn2nc(CCC(C)(C)O)cc2cc1NC(=O)c1cccn(C2CC2)c1=O [Compound 17, 1-cyclopropyl-N-[6-ethoxy-2-(3-hydroxy-3-methyl-butyl)pyrazolo[1,5-a]pyridin-5-yl]-2-oxo-pyridine-3-carboxamide]
16 | 0.1 to 5 nM | – | CNC(=O)c1cn2nc(CCC(C)(C)O)cc2cc1NC(=O)c1cccc(C(F)F)n1 [Compound 19, 5-[[6-(difluoromethyl)pyridine-2-carbonyl]amino]-2-(3-hydroxy-3-methyl-butyl)-N-methyl-pyrazolo[1,5-a]pyridine-6-carboxamide]
